Results from patent US20240398783A1, “Compounds and Pharmaceutical Compositions Comprising Inhibitors of Amyloid Peptide Interactions with Glycosaminoglycans, Methods of Treatment and Use Thereof” (Gismo Therapeutics, Inc., priority 2021, published 2024).
Where a name gives a salt, the structure may show the parent alone. Read-outs that look alike come from different tables or passages of the source.

What was measured:
[1] = target: TDP-43 binding to heparin (HS-GAG) (Homo sapiens, UniProt Q13148); assay: Inhibition of TDP-43 binding to immobilized heparin-BSA (ELISA); set-up: species or system porcine; settings: for IC50: TDP-43, heparin-BSA; for inhibition at 30 µM: read-out: TDP43/Heparin Activity (% inhibition class)
Description: (§1) Porcine intestinal mucosa heparin conjugated to Bovine Serum Albumin (Heparin-BSA) was prepared as described (Najjam, S. et al. 1997, Cytokine 12, 1013-1022). Heparin is a sulfated HS-GAG and is commonly used as a HS-GAG in biochemical and binding assays (Lindahl, U. and Kjellen, L. (2013) ibid). Heparin-BSA at 0.01 mg/ml in Phosphate Buffered Saline (PBS; pH 7.4) was added to a 96 well polystyrene ELISA plate (NUNC Cat. No. 449824; 100 μl per well) and incubated Over Night (ON) at 4 degrees Celsius. For negative controls, ELISA plates were coated with BSA instead of Heparin-BSA, using the same procedure. Following the incubation, the plate was washed consecutively, by immersion, with de-ionized water and PBS (pH 7.4). The ELISA plate was then blocked with nonfat milk (2%, 200 μl per well) for 2 hours at Room Temperature (RT) with gentle shaking. Following blocking, the plate was washed with de-ionized water then PBS (pH 7.4). GBAPs were dissolved and diluted in PBS (pH 6.5, supplemented with 0.1% BSA) at desired concentrations, added to the ELISA plates containing immobilized Heparin-BSA (100 μl per well) and incubated for 2 hours at RT with gentle shaking. Following incubation, the plate was washed with de-ionized water and three times with PBS (pH 6.5) plus Tween. Bound GBAP was detected by a monoclonal antibody specific for that GBAP, followed by incubation with secondary antibody conjugated to horseradish peroxidase (HRP). Antibody was diluted in PBS (pH 6.5 supplemented with 1% BSA). Following each incubation with antibody, the plate was washed with de-ionized water and three times with PBS (pH 6.5) wash buffer containing 0.1% Tween. The peroxidase substrate chromogen, TMB (Dako Cat. No. S1599) was added (100 μl per well) to the ELISA plate and incubated at room temperature. After 5 minutes ELISA Stop Solution (hydrochloric acid 1N, sulfuric acid 3N) was added (100 μl per well) to stop the peroxidase catalyzed colorimetric reaction. The Optical Density of the samples was measured at 450 nm using an ELISA plate reader (BioTek Synergy H1). Following color development, the % inhibition compared to control (BSA-coated plates) was determined. IC-50s were calculated using GraphPad Prism software.
The assay was performed as described in Example 43, with the following modifications.
Following to coating the plates with Heparin-BSA, plates were washed as described. The compounds were dissolved in DMSO at 10 mM final concentration and further diluted prior to assay. DMSO concentration in the screening well was up to 2%. Individual compounds were co-incubated with TDP-43 on plates containing immobilized heparin. TDP43 from R&D System (Cat. No. AP-190) was quickly frozen and kept in aliquots at −80 degrees Celsius. TDP-43 dissolved in PBS (pH 6.5, supplemented with BSA, 0.1%) was added to the ELISA plate (100 μl per well) and incubated for 2 hours at RT with gentle shaking. Following the incubation, the plate was washed with de-ionized water and three times with PBS (pH 6.5) plus Tween. Bound TDP-43 was detected by Anti-TDP43 Monoclonal Antibody (R&D System Cat. No. MAB7778), followed by secondary anti-IgG antibody conjugated to HRP (R&D System, Cat. No. HAF007). Following to color development with TMB, as described in Example 43, the Optical Density of the samples was measured at 450 nm using an ELISA plate reader. Following color development, the % inhibition compared to control (no compound, DMSO control) for every compound was determined.
As described in Example 43, Heparin in the form of Heparin-BSA conjugate is used as a source of HS-GAG. For each compound IC-50 value in TDP-43—heparin-BSA binding assay is shown in μM (micromolar). In some cases IC-50 was not measured and % inhibition at 30 μM compound concentration is shown instead. […] All assays were done on 96-well plates in duplicates and experiments were repeated at least twice. […]

[2] = target: T1, Amyloid-beta(1-42) oligomer binding to heparin (HS-GAG) (Homo sapiens, UniProt P05067); assay: Inhibition of Amyloid-beta(1-42) oligomer binding to immobilized heparin-BSA (ELISA); set-up: species or system porcine; settings: for IC50: co-incubation on heparin-BSA plates, read-out: Abeta42/Heparin Activity (IC-50); for inhibition at 30 µM: read-out: Abeta42/Heparin Activity (% inhibition class)
T1 construct: Beta-amyloid (1-42) was purchased from rPeptide (Cat. No. A1163); purchased rPeptide A1163
Description: as §1
The assay was performed as described in Example 43, with the following modifications. Following to coating the plates with Heparin-BSA, plates were washed as described. The compounds were dissolved in DMSO at 10 mM final concentration and further diluted prior to assay. DMSO concentration in the screening well was up to 2%. Individual compounds were co-incubated with Beta-amyloid peptides on plates containing immobilized heparin. Beta-amyloid (1-42) was purchased from rPeptide (Cat. No. A1163) and used to prepare oligomers according to Stine et al., 2003 (J Biol Chem. 278(13):11612-22) as follows. 1,1,1,3,3,3-Hexafluoro-2-propanol- (HFIP; Sigma Cat. No. 105228)-treated Beta amyloid (1-42) was dissolved in dry DMSO (Sigma Cat. No. D2650) to 5 mM concentration. Dissolved Beta amyloid (1-42) was then diluted to 100 μM in ice-cold cell culture medium (phenol red-free Ham's F-12; Caisson Labs, Cat. No. HFL05), followed immediately by vortexing for 30 seconds, and incubating at 4 degrees Celsius for 24 h. Resulting Beta amyloid (1-42) oligomers were centrifuged at 12,000 rpm for 10 min at 4 degree Celsius to remove aggregates. Oligomers were then quickly frozen and kept in aliquots at −80 degrees Celsius. Beta-amyloid (1-40) from rPeptide (Cat No. A1153) was dissolved in DMSO, quickly frozen and kept in aliquots at −80 degrees Celsius. Beta-amyloid (1-42) oligomers or Beta-amyloid (1-40) diluted in PBS (pH 6.5, supplemented with BSA, 0.1%) were added to the ELISA plate (100 μl per well) and incubated for 2 hours at RT with gentle shaking. Following the incubation, the plate was washed with de-ionized water and three times with PBS (pH 6.5) plus Tween. […]

[3] = read-out: TDP43/Heparin Activity (IC-50)
[4] = 30 μM compound, Abeta(1-42) oligomers, heparin-BSA

TDP-43 binding to heparin (HS-GAG), sequence (Q13148 whole entry): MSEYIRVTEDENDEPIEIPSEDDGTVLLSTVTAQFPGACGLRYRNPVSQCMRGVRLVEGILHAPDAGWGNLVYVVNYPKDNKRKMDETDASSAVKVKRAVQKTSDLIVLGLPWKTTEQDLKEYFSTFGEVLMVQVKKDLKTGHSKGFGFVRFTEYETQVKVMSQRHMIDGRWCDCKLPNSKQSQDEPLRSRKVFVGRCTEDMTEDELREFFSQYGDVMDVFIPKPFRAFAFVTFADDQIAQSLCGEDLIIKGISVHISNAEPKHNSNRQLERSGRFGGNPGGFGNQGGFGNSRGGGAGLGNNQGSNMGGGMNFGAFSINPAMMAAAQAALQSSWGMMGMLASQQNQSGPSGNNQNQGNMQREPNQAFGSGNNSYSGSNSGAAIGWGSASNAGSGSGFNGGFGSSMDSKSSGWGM
T1 sequence (P05067 672-713): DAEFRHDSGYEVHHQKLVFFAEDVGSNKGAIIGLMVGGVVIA

Row | Compound | IC50 ([2]; Abeta(1-42) oligomers) | IC50 ([1]; TDP43/Heparin Activity (IC-50)) | inhibition at 30 µM [1] | inhibition at 30 µM [2] | other results
1 | Cc1cc(-n2ccnc2)ccc1/C=N/Nc1ccnc2cc(Cl)ccc12 [Compound 1, (E)-4-((E)-(4-(1H-imidazol-1-yl)-2-methylbenzylidene)hydrazono)-7-chloro-1,4-dihydroquinoline] | 2.3 µM |  |  |  | IC50 [1, 3]: 2.92 µM
2 | Cc1ncn(-c2ccc(/C=N/Nc3ccnc4cc(Cl)ccc34)cc2)c1C [Compound 2, (E)-7-chloro-4-((E)-(4-(4,5-dimethyl-1H-imidazol-1-yl)benzylidene)hydrazono)-1,4-dihydroquinoline] | 30.7 µM | 61.7 µM |  |  | 
3 | Clc1ccc2c(N/N=C/c3ccc(-n4cccn4)cc3)ccnc2c1 [Compound 3, (E)-4-((E)-(4-(1H-pyrazol-1-yl)benzylidene)hydrazono)-7-chloro-1,4-dihydroquinoline] | 2.36 µM | 8.1 µM |  |  | 
4 | C[N+](C)(C)Cc1ccc(/C=N\Nc2ccnc3ccc(Cl)cc23)cc1 [Compound 4, (Z)-1-(4-((2-(6-chloroquinolin-4-yl)hydrazineylidene)methyl)phenyl)—N,N,N-trimethylmethanaminium iodide] | 42.7 µM |  | < 30% |  | 
5 | Fc1ccc2c(N/N=C/c3ccc(-n4ccnc4)cc3)ccnc2c1 [Compound 5, (E)-4-(2-(4-(1H-imidazol-1-yl)benzylidene)hydrazinyl)-7-fluoroquinoline] |  | 71.4 µM |  | < 30% | 
6 | Fc1ccc2c(N/N=C/c3ccc(CN4CCOCC4)cc3)ccnc2c1 [Compound 6, (E)-4-(4-((2-(7-fluoroquinolin-4-yl)hydrazono)methyl)benzyl)morpholine] |  |  | < 30% |  | inhibition at 30 µM [2, 4]: > 30%
7 | CN1CCN(Cc2ccc(/C=N/Nc3ccnc4cc(Cl)ccc34)cc2)CC1 [Compound 7, (E)-7-chloro-4-(2-(4-((4-methylpiperazin-1-yl)methyl)benzylidene)hydrazinyl)quinolone] |  |  | < 30% |  | inhibition at 30 µM [2, 4]: < 30%
8 | C(=N\Nc1ccc2c3c(cccc13)CC2)/c1ccc(-n2ccnc2)cc1 [Compound 8, (E)-1-(4-((2-(1,2-dihydroacenaphthylen-5-yl)hydrazineylidene)methyl)phenyl)-1H-imidazole] |  | 10.8 µM |  | < 30% | 
9 | C[n+]1ccc(/C=N\Nc2ccnc3ccccc23)cc1 [Compound 9, (Z)-1-methyl-4-((2-(quinolin-4-yl)hydrazono)methyl)pyridin-1-ium iodide] |  |  | < 30% |  | inhibition at 30 µM [2, 4]: < 30%
10 | O=S1(=O)CCN(Cc2ccc(/C=N/Nc3ccnc4cc(F)ccc34)cc2)CC1 [Compound 10, (E)-4-(4-((2-(7-fluoroquinolin-4-yl)hydrazono)methyl)benzyl)thiomorpholine 1,1-dioxide] |  |  | > 30% |  | inhibition at 30 µM [2, 4]: < 30%
11 | COc1cc2nccc(NN=Cc3ccc(-n4ccnc4)c(C)c3)c2cc1OC [Compound 11, 4-(2-(4-(1H-imidazol-1-yl)-3-methylbenzylidene)hydrazineyl)-6,7-dimethoxyquinoline hydrochloride] |  |  | < 30% | < 30% | 
12 | COc1ccc2c(NN=Cc3ccc(-n4ccnc4)c(C)c3)ccnc2c1 [Compound 12, 4-(2-(4-(1H-imidazol-1-yl)-3-methylbenzylidene)hydrazineyl)-7-methoxyquinoline] |  |  | < 30% | < 30% | 
13 | COc1cc2nccc(N/N=C/c3ccc(-n4ccnc4)c(OC)c3)c2cc1OC [Compound 13, (E)-4-(2-(4-(1H-imidazol-1-yl)-3-methoxybenzylidene)hydrazineyl)-6,7-dimethoxyquinoline phosphate] |  |  | < 30% | < 30% | 
14 | Clc1ccc2c(N/N=C/c3ccc(-n4ccnc4)nc3)ccnc2c1 [Compound 14, (E)-4-(2-((6-(1H-imidazol-1-yl)pyridin-3-yl)methylene)hydrazineyl)-7-chloroquinoline hydrochloride] | 8.14 µM | 4.32 µM |  |  | 
15 | Cc1ncn(-c2ccc(/C=N\Nc3ncnc4cc(Cl)ccc34)cn2)c1C [Compound 15, 7-chloro-4-(2-((6-(4,5-dimethyl-1H-imidazol-1-yl)pyridin-3-yl)methylene)hydrazineyl)quinazoline hydrochloride] | 18.9 µM | 3.06 µM |  |  | 
16 | C/C(=N\Nc1ncnc2cc(Cl)ccc12)c1ccc(-n2cnc(C)c2C)nc1 [Compound 16, 7-chloro-4-(2-(1-(6-(4,5-dimethyl-1H-imidazol-1-yl)pyridin-3-yl)ethylidene)hydrazineyl)quinazoline phosphate] | 5.48 µM | 2.16 µM |  |  | 
17 | C/C(=N\Nc1ncnc2cc(Cl)ccc12)c1ccc(-n2cc[n+](C)c2)nc1 [Compound 17, (E)-1-(5-(1-(2-(7-chloroquinazolin-4-yl)hydrazineylidene)ethyl)pyridin-2-yl)-3-methyl-1H-imidazol-3-ium iodide phosphoric acid salt] | 11.7 µM | 33.6 µM |  |  | 
18 | C/C(=N\Nc1ncnc2cc(Cl)ccc12)c1ccc(-n2cc(C)nc2C)nc1 [Compound 18, (E)-7-chloro-4-(2-(1-(6-(2,4-dimethyl-1H-imidazol-1-yl)pyridin-3-yl)ethylidene)hydrazineyl)quinazoline phosphoric acid salt] | 13.6 µM |  |  |  | IC50 [1, 3]: 4.77 µM
19 | C/C(=N\Nc1ncnc2ccccc12)c1ccc(-n2cc(C)nc2C)nc1 [Compound 19, (E)-4-(2-(1-(6-(2,4-dimethyl-1H-imidazol-1-yl)pyridin-3-yl)ethylidene)hydrazineyl)quinazoline] |  | 36.8 µM |  | < 30% | 
20 | CN1CCN(c2cc(Nc3ccnc4cc(Cl)ccc34)ccn2)CC1 [Compound 20, 7-chloro-N-(2-(4-methylpiperazin-1-yl)pyridin-4-yl)quinolin-4-amine] |  |  | < 30% | < 30% | 
